Results published in BindingDB's records for patent US20250313563 (The Broad Institute, 2025).
Several values for one entry are separate records, joined by “and”; a condition that tells them apart may be missing. Equal entries are not always repeated.

Columns and labels:
[1] = target: Glycogen synthase kinase-3 alpha (Homo sapiens, UniProt P49840); assay: TR-FRET Assay
Method in brief: (§1)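 TR-FRET readout: streptavidin-d2 (40 nM in added detection mix) plus Tb-anti-pSer641 Ab (2 nM in mix). Steps were 30 min compound preincubation, kinase reaction, then EDTA stop.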

[2] = target: Glycogen synthase kinase-3 beta (Homo sapiens, UniProt P49841); assay: TR-FRET Assay
Glycogen synthase kinase-3 beta, sequence (P49841 whole entry): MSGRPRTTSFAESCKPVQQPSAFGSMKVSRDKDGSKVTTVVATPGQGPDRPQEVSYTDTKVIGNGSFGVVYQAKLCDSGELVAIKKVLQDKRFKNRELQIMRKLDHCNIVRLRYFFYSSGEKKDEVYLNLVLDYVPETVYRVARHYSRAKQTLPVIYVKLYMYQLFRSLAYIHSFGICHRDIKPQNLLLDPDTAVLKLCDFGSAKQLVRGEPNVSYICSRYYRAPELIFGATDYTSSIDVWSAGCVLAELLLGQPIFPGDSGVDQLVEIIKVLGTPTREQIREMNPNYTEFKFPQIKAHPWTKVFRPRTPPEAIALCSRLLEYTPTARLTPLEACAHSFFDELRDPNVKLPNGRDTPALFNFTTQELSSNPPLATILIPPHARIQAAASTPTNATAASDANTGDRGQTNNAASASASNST
Method in brief: as §1

Glycogen synthase kinase-3 alpha, sequence (P49840 whole entry): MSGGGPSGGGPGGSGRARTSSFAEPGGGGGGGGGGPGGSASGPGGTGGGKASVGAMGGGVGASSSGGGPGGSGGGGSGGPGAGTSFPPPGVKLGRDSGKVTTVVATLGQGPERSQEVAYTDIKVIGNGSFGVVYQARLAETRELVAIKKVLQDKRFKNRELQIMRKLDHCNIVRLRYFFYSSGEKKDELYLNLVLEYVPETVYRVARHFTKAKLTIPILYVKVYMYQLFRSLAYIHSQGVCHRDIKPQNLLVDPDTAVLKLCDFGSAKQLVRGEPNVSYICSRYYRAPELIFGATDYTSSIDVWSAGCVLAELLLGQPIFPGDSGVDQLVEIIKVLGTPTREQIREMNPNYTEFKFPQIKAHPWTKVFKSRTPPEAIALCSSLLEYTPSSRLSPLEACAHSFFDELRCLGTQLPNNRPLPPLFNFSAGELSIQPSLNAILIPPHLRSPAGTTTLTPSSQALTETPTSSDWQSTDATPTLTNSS

| Compound | IC50 [1] | IC50 [2] |
| --- | --- | --- |
| CC1(C)CC(=O)C2=C(C1)NC1=C(CN=N1)C21CCN(S(=O)(=O)c2ccccc2C(F)(F)F)CC1 [US20250313563, Compound 945667] | < 100 nM | 100 to 1000 nM |
| CCC1(c2cccc(Br)c2)C2=C(CC(C)CC2=O)NC2N=NC(C(F)(F)F)=C21 (stereo not drawn) [US20250313563, Compound 826715] | < 100 nM | < 100 nM |
| CCC1(c2cccc(C(F)(F)F)c2)C2=CN=NC2NC2=C1C(=O)NC(C(C)(C)C)C2 (stereo not drawn) [US20250313563, Compound 945635] | < 100 nM | 100 to 1000 nM |
| CC[C@@]1(c2cc(-c3ccncc3)ccc2F)C2=CN=NC2NC2=C1C(=O)CC(C)(C)C2 (stereo partly drawn) [US20250313563, Compound 893324] | 1000 to 5000 nM | > 5000 nM |
| CCC1(c2cccc(N3CCN(C)CC3)c2)C2=CN=NC2NC2=C1C(=O)CC(C)(C)C2 (stereo not drawn) [US20250313563, Compound 810379] | > 1670 nM | > 5000 nM |
| CC[C@]1(c2cccc(-c3ccncc3C)c2)C2=C(CC(C)(C)NC2=O)NC2N=NC(C)=C21 (stereo partly drawn) [US20250313563, Compound 947409] | 1000 to 5000 nM | > 5000 nM |
| CC[C@]1(c2cccc(C(F)(F)F)c2)C2=CN=NC2NC2=C1C(=O)N[C@H](C(C)(C)C)C2 (stereo partly drawn) [US20250313563, Compound 945920] | < 100 nM and 100 to 1000 nM | 100 to 1000 nM and 1000 to 5000 nM |
| CC1(C)CC(=O)C2=C(C1)NC1=C(CN=N1)[C@]21CCN(S(=O)(=O)c2cccc(F)c2)C1 [US20250313563, Compound 943488] | < 100 nM | < 100 nM |
| CC[C@]1(c2cccc(N3CCOCC3)c2)C2=CN=NC2NC2=C1C(=O)CC(C)(C)C2 (stereo partly drawn) [US20250313563, Compound 810364] | > 5000 nM | > 5000 nM |
| CC[C@@]1(c2cccc(C(F)(F)F)c2)C2=C(N=NC2)NC2=C1C(=O)N(C)C2(C)C [US20250313563, Compound 918252] | < 100 nM | 100 to 1000 nM |
| CC1(C)CC(=O)C2=C(C1)NC1=C(CN=N1)C21CCN(CC(F)(F)F)CC1 [US20250313563, Compound 874528] | < 100 nM | 100 to 1000 nM |
| COc1ccc(S(=O)(=O)N2CCC[C@]3(CC2)C2=CN=NC2NC2=C3C(=O)CC(C)(C)C2)cc1 (stereo partly drawn) [US20250313563, Compound 932641] | < 100 nM | 100 to 1000 nM |
| CN1C[C@]2(C3=C(CC(C)(C)CC3=O)NC3N=NC(C4CC(F)(F)C4)=C32)c2ccccc21 (stereo partly drawn) [US20250313563, Compound 119047] | 1000 to 5000 nM | 100 to 1000 nM |
| CC1(C)CC(=O)C2=C(C1)NC1=C(CN=N1)C21CCN(S(=O)(=O)c2cccc(OC(F)F)c2)CC1 [US20250313563, Compound 947242] | < 100 nM | < 100 nM and 100 to 1000 nM |
| CCC1(c2cccc(-c3cnc4n3CCCC4)c2)C2=CN=NC2NC2=C1C(=O)CC(C)(C)C2 (stereo not drawn) [US20250313563, Compound 943535] | < 100 nM | < 100 nM |
| CC1(C)CC(=O)C2=C(C1)NC1=C(CN=N1)C21CCCCC1 [US20250313563, Compound 826650] | < 100 nM | < 100 nM |
| CC1(C)CC(=O)C2=C(C1)NC1=C(CN=N1)[C@]21CCO[C@H](C(C)(C)C)C1 [US20250313563, Compound 912112] | 100 to 1000 nM | 100 to 1000 nM |
| CC[C@]1(c2cccc(N3CCc4ccncc43)c2)C2=CN=NC2NC2=C1C(=O)CC(C)(C)C2 (stereo partly drawn) [US20250313563, Compound 912003] | < 100 nM | 100 to 1000 nM |
| O=C1C2=C(NC3N=NC=C3C23CCOCC3)[C@@H]2CC[C@H]1C2 (stereo partly drawn) [US20250313563, Compound 912081] | 100 to 1000 nM | 1000 to 5000 nM |
| CC1(C)CC(=O)C2=C(C1)NC1=C(CN=N1)C21CN(S(=O)(=O)C2CCCC2)C1 [US20250313563, Compound 917139] | < 100 nM and 100 to 1000 nM | < 100 nM and 100 to 1000 nM |
| CC[C@@]1(c2cccc(-c3cc(OC)ncc3F)c2)C2=CN=NC2NC2=C1C(=O)CC(C)(C)C2 (stereo partly drawn) [US20250313563, Compound 944032] | 100 to 1000 nM | 1000 to 5000 nM |
| CCC1(c2cccc(OC(C)C)c2)C2=CN=NC2NC2=C1C(=O)CC(C)(C)C2 (stereo not drawn) [US20250313563, Compound 801448] | < 100 nM | 100 to 1000 nM |
| CC[C@@H]1C[C@@]2(CO1)C1=C(N=NC1)NC1=C2C(=O)CC(C)(C)C1 [US20250313563, Compound 913215] | 100 to 1000 nM | 1000 to 5000 nM |
| CC[C@]1(c2cccc(-c3ccnc(C)c3)c2)C2=CN=NC2NC2=C1C(=O)N[C@H](C)C2 (stereo partly drawn) [US20250313563, Compound 926212] | < 100 nM | 1000 to 5000 nM |
| CC[C@@]1(c2cccc(-c3cnc(C)n3C)c2)C2=CN=NC2NC2=C1C(=O)CC(C)(C)C2 (stereo partly drawn) [US20250313563, Compound 945612] | 1000 to 5000 nM | > 5000 nM |
| CC1(C)CC2=C(C(=O)[C@@H]1F)[C@]1(CC[C@H](C(F)(F)F)CC1)C1=CN=NC1N2 (stereo partly drawn) [US20250313563, Compound 918283] | < 100 nM | < 100 nM |

Continued, values first:

| IC50 [1] | IC50 [2] | Compound |
| --- | --- | --- |
| > 5000 nM | > 5000 nM | CC[C@@]1(c2ccccc2)C2=CN=NC2NC2=C1C(=O)CC(C)(C)[C@@H]2F (stereo partly drawn) [US20250313563, Compound 957199] |
| < 100 nM and 100 to 1000 nM | 100 to 1000 nM and 1000 to 5000 nM | CC[C@@]1(c2cccc(-c3ccnc4c(F)cccc34)c2)C2=CN=NC2NC2=C1C(=O)NC(C)(C)C2 (stereo partly drawn) [US20250313563, Compound 948828] |
| 100 to 1000 nM | 1000 to 5000 nM | CCC1(c2cccc(-c3c(C)nnn3C)c2)C2=C(N=NC2)NC2=C1C(=O)C(C)(C)C2 (stereo not drawn) [US20250313563, Compound 950815] |
| 1000 to 5000 nM | > 5000 nM | CC[C@]1(c2ccccc2)C2=CN=NC2NC2=C1C(=O)C[C@]1(CCNC1=O)C2 (stereo partly drawn) [US20250313563, Compound 950161] |
| 100 to 1000 nM | 1000 to 5000 nM | CC[C@@]1(c2cccc(-c3cn(C)nc3C(C)C)c2)C2=CN=NC2NC2=C1C(=O)NC(C)(C)C2 (stereo partly drawn) [US20250313563, Compound 949111] |
| < 100 nM and 100 to 1000 nM | < 100 nM and 1000 to 5000 nM | CC[C@]1(c2cccc(-c3c(F)cncc3OC)c2)C2=C(N=NC2)NC2=C1C(=O)N(Cc1ccccc1)C2 [US20250313563, Compound 948549] |
| 1000 to 5000 nM | > 5000 nM | CC[C@]1(c2cccc(-c3ccnc(C)c3)c2)C2=CN=NC2NC2=C1C(=O)N[C@]1(CCOC1)C2 (stereo partly drawn) [US20250313563, Compound 948141] |
| < 100 nM and 100 to 1000 nM | < 100 nM and 1000 to 5000 nM | CC[C@]1(c2cccc(-c3ccncc3F)c2)C2=C(CC(C)(C)NC2=O)NC2N=NC(C(F)F)=C21 (stereo partly drawn) [US20250313563, Compound 951612] |
| < 100 nM | < 100 nM | CC[C@]1(c2cccc(C3=CN=NC3)c2)C2=C(CC(C)(C)NC2=O)NC2N=NC(C(F)(F)F)=C21 (stereo partly drawn) [US20250313563, Compound 948307] |
| 100 to 1000 nM | 100 to 1000 nM | COc1cccc(S(=O)(=O)N2CC[C@@]3(C2)C2=C(N=NC2)NC2=C3C(=O)CC(C)(C)C2)c1 [US20250313563, Compound 951789] |
| 1000 to 5000 nM | > 5000 nM | CC[C@]1(c2cccc(C(F)(F)F)c2)C2=CN=NC2NC2=C1C(=O)N(c1cn(C)c(C)n1)CC2 (stereo partly drawn) [US20250313563, Compound 952478] |
| 1000 to 5000 nM | > 5000 nM | CC[C@]1(c2cccc(-c3c(F)cncc3Cl)c2)C2=CN=NC2NC2=C1C(=O)NC(C)(C)C2 (stereo partly drawn) [US20250313563, Compound 948363] |
| < 100 nM | 100 to 1000 nM | CC1(C)CC(=O)C2=C(NC3=C(CN=N3)C23CCN(S(=O)(=O)c2ccccc2C(F)F)CC3)[C@H]1F [US20250313563, Compound 951839] |
